Measured values as given in patent US20240158446A1, “CYCLIC COMPOUND HAVING SELECTIVE INHIBITORY ACTION ON KRAS OVER HRAS AND NRAS” (CHUGAI SEIYAKU KABUSHIKI KAISHA, priority 2021, published 2024).

How the values were obtained:
[1] = biological target: GDP-bound KRAS wild-type protein (Homo sapiens, UniProt P01116); experiment: Binding to KRAS by surface plasmon resonance (SPR), Single Cycle Kinetics; conditions: SPR, Single Cycle Kinetics, GDP-bound KRAS wild-type protein; read-out: KRAS KD
[2] = biological target: GDP-bound NRAS wild-type protein (Homo sapiens, UniProt P01111); experiment: Binding to NRAS by surface plasmon resonance (SPR), Single Cycle Kinetics; conditions: ratio of KD for GDP-bound NRAS wild-type protein to KD for KRAS, SPR
Chain of GDP-bound NRAS wild-type protein (P01111 whole entry): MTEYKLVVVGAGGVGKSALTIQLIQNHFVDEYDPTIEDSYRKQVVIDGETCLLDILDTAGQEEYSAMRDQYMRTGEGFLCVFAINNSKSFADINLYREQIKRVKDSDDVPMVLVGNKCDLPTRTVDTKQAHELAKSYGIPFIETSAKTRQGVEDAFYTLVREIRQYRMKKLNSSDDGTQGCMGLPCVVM

[3] = biological target: GDP-bound HRAS wild-type protein (Homo sapiens, UniProt P01112); experiment: Binding to HRAS by surface plasmon resonance (SPR), Single Cycle Kinetics; conditions: ratio of KD for GDP-bound HRAS wild-type protein to KD for KRAS, SPR
Chain of GDP-bound HRAS wild-type protein (P01112 whole entry): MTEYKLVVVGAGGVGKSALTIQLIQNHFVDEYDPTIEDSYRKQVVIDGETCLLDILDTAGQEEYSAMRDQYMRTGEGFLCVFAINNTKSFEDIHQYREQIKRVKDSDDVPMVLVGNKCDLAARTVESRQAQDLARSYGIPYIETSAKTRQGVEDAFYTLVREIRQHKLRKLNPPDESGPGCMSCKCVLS

[4] = tested on: human lung cancer strain NCI-H441; experiment: cells; conditions: NCI-H441, 96 h, read-out: NCI-H441 IC50 (nM), NCI-H441 cell proliferation, 4 days, CellTiter-Glo;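 also: cell proliferation inhibition after four days measured by CellTiter-Glo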

Chain of GDP-bound KRAS wild-type protein (P01116 whole entry): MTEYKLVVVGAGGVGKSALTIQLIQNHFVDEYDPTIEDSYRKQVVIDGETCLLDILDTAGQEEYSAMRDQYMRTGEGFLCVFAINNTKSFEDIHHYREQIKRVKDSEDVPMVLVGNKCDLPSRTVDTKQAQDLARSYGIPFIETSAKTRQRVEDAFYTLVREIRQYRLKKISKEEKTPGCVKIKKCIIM

Row | SMILES | Kd [1] [nM] | NRAS/KRAS (KD ratio) [2] | HRAS/KRAS (KD ratio) [3] | IC50 [4] [nM]
1 | CC[C@H](C)[C@@H]1NC(=O)[C@H](C(C)C)N(C)C(=O)C[C@@H](C(=O)N(C)CC)N(C)C(=O)[C@H](C2CCCC2)N(C)C(=O)C2(CC(C)(C)C2)NC(=O)[C@@H]2C[C@H](C)CN2C(=O)[C@H](CCc2cc(F)c(C(F)(F)F)c(F)c2)NC(=O)CN(C)C(=O)[C@H](Cc2ccc(C(F)(F)F)cc2)N2CC/C=C\C[C@@H](C2=O)N(C)C(=O)CN(C)C1=O [PP1976] | 0.37 | AA (a compound having 20 or more is denoted as AA) | A (a compound having 10 or more and less than 20 is denoted as A) | 92
2 | CCO[C@@H]1C[C@H]2C(=O)NC3(CC(C)(C)C3)C(=O)N(C)[C@@H](C3CCCC3)C(=O)N(C)[C@H](C(=O)N(C)CC)CC(=O)N(C)[C@@H](C(C)C)C(=O)N[C@@H]([C@@H](C)CC)C(=O)N(C)CC(=O)N(C)[C@H]3C/C=C\CCN(C3=O)[C@@H](Cc3ccc(C(F)(F)F)cc3)C(=O)N(C)CC(=O)N[C@@H](CCc3ccc(C(F)(F)F)c(OC)c3)C(=O)N2C1 [PP1977] | 0.15 | AA (a compound having 20 or more is denoted as AA) | A (a compound having 10 or more and less than 20 is denoted as A) | 20.2
3 | CCO[C@@H]1C[C@H]2C(=O)NC3(CC(C)(C)C3)C(=O)N(C)[C@@H](C3CCCC3)C(=O)N(C)[C@H](C(=O)N(C)C)CC(=O)N(C)[C@@H](C(C)C)C(=O)N[C@@H]([C@@H](C)CC)C(=O)N(C)CC(=O)N(C)[C@H]3C/C=C\CCN(C3=O)[C@@H](Cc3ccc(C(F)(F)F)cc3)C(=O)N(C)CC(=O)N[C@@H](CCc3ccc(C(F)(F)F)c(OC)c3)C(=O)N2C1 [PP1979] | 0.087 | AA (a compound having 20 or more is denoted as AA) | A (a compound having 10 or more and less than 20 is denoted as A) | 12.5
4 | CCO[C@@H]1C[C@H]2C(=O)NC3(CC(C)(C)C3)C(=O)N(C)[C@@H](C3CCCC3)C(=O)N(C)[C@H](C(=O)N(C)CC)CC(=O)N(C)[C@@H](C3CC3)C(=O)N[C@@H]([C@@H](C)CC)C(=O)N(C)CC(=O)N(C)[C@H]3C/C=C\CCN(C3=O)[C@@H](Cc3ccc(C(F)(F)F)cc3)C(=O)N(C)CC(=O)N[C@@H](CCc3ccc(C(F)(F)F)c(OC)c3)C(=O)N2C1 [PP1981] | 0.1 | A (a compound having 10 or more and less than 20 is denoted as A) | A (a compound having 10 or more and less than 20 is denoted as A) | 20.7
5 | CCCN(C)C(=O)[C@@H]1CC(=O)N(C)[C@@H](C2CC2)C(=O)N[C@@H]([C@@H](C)CC)C(=O)N(C)CC(=O)N(C)[C@H]2C/C=C\CCN(C2=O)[C@@H](Cc2ccc(C(F)(F)F)cc2)C(=O)N(C)CC(=O)N[C@@H](CCc2ccc(C(F)(F)F)c(OC)c2)C(=O)N2C[C@H](OCC)C[C@H]2C(=O)NC2(CC(C)(C)C2)C(=O)N(C)[C@@H](C2CCCC2)C(=O)N1C [PP1983] | 0.14 | AA (a compound having 20 or more is denoted as AA) | A (a compound having 10 or more and less than 20 is denoted as A) | 20.2
6 | CC[C@H](C)[C@@H]1NC(=O)[C@H](C2CCC2)N(C)C(=O)C[C@@H](C(=O)N(C)CC)N(C)C(=O)[C@H](C2CCCC2)N(C)C(=O)C2(CC(C)(C)C2)NC(=O)[C@@H]2C[C@H](C)CN2C(=O)[C@H](CCc2cc(F)c(C(F)(F)F)c(F)c2)NC(=O)CN(C)C(=O)[C@H](Cc2ccc(C(F)(F)F)cc2)N2CC/C=C\C[C@@H](C2=O)N(C)C(=O)CN(C)C1=O [PP1984] | 0.3 | A (a compound having 10 or more and less than 20 is denoted as A) | A (a compound having 10 or more and less than 20 is denoted as A) | 50.8
7 | CCO[C@@H]1C[C@H]2C(=O)NC3(CC(C)(C)C3)C(=O)N(C)[C@@H](C3CCCC3)C(=O)N(C)[C@H](C(=O)N(C)C)CC(=O)N(C)[C@@H](C3CCC3)C(=O)N[C@@H]([C@@H](C)CC)C(=O)N(C)CC(=O)N(C)[C@H]3C/C=C\CCN(C3=O)[C@@H](Cc3ccc(C(F)(F)F)cc3)C(=O)N(C)CC(=O)N[C@@H](CCc3ccc(C(F)(F)F)c(OC)c3)C(=O)N2C1 [PP1987] | 0.053 | A (a compound having 10 or more and less than 20 is denoted as A) | A (a compound having 10 or more and less than 20 is denoted as A) | 6.6
8 | CCCN(C)C(=O)[C@@H]1CC(=O)N(C)[C@@H](COCC)C(=O)N[C@@H]([C@@H](C)CC)C(=O)N(C)CC(=O)N(C)[C@H]2C/C=C\CCN(C2=O)[C@@H](Cc2ccc(C(F)(F)F)cc2)C(=O)N(C)CC(=O)N[C@@H](CCc2cc(F)c(C(F)(F)F)c(F)c2)C(=O)N2C[C@H](OCC)C[C@H]2C(=O)NC2(CCC2)C(=O)N(C)[C@@H](C2CCCC2)C(=O)N1C [PP1988] | 0.06 | A (a compound having 10 or more and less than 20 is denoted as A) | A (a compound having 10 or more and less than 20 is denoted as A) | 11
9 | CCCN(C)C(=O)[C@@H]1CC(=O)N(C)[C@@H](CC(F)F)C(=O)N[C@@H]([C@@H](C)CC)C(=O)N(C)CC(=O)N(C)[C@H]2C/C=C\CCN(C2=O)[C@@H](Cc2ccc(C(F)(F)F)cc2)C(=O)N(C)CC(=O)N[C@@H](CCc2ccc(C(F)(F)F)c(OC)c2)C(=O)N2C[C@@H](C)C[C@H]2C(=O)NC2(CC(C)(C)C2)C(=O)N(C)[C@@H](C2CCCC2)C(=O)N1C [PP1989] | 0.19 | A (a compound having 10 or more and less than 20 is denoted as A) | A (a compound having 10 or more and less than 20 is denoted as A) | 11.1
10 | CCO[C@@H]1C[C@H]2C(=O)NC3(CCC3)C(=O)N(C)[C@@H](C3CCCC3)C(=O)N(C)[C@H](C(=O)N(C)CC)CC(=O)N(C)[C@@H](C(C)C)C(=O)N[C@@H]([C@@H](C)CC)C(=O)N(C)CC(=O)N(C)[C@H]3C/C=C\CCN(C3=O)[C@@H](Cc3ccc(C(F)(F)F)cc3)C(=O)N(C)CC(=O)N[C@@H](CCc3cc(F)c(C(F)(F)F)c(F)c3)C(=O)N2C1 [PP1990] | 0.14 | A (a compound having 10 or more and less than 20 is denoted as A) | A (a compound having 10 or more and less than 20 is denoted as A) | 6.6
11 | CCCN(C)C(=O)[C@@H]1CC(=O)N(C)[C@@H](COCC)C(=O)N[C@@H]([C@@H](C)CC)C(=O)N(C)CC(=O)N(C)[C@H]2C/C=C\CCN(C2=O)[C@@H](Cc2ccc(C(F)(F)F)cc2)C(=O)N(C)CC(=O)N[C@@H](CCc2ccc(C(F)(F)F)c(OC)c2)C(=O)N2C[C@@H](C)C[C@H]2C(=O)NC2(CC(C)(C)C2)C(=O)N(C)[C@@H](C2CCCC2)C(=O)N1C [PP1991] | 0.15 | A (a compound having 10 or more and less than 20 is denoted as A) | A (a compound having 10 or more and less than 20 is denoted as A) | 10.8
12 | CCCN(C)C(=O)[C@@H]1CC(=O)N(C)[C@@H](C(C)C)C(=O)N[C@@H]([C@@H](C)CC)C(=O)N(C)CC(=O)N(C)[C@H]2C/C=C\CCN(C2=O)[C@@H](Cc2ccc(C(F)(F)F)cc2)C(=O)N(C)CC(=O)N[C@@H](CCc2cc(F)c(C(F)(F)F)c(F)c2)C(=O)N2C[C@H](OCC)C[C@H]2C(=O)NC2(CCC2)C(=O)N(C)[C@@H](C2CCCC2)C(=O)N1C [PP1992] | 0.21 | AA (a compound having 20 or more is denoted as AA) | B (a compound having 3 or more and less than 10 is denoted as B) | 17.7
13 | CCOC[C@H]1C(=O)N[C@@H]([C@@H](C)CC)C(=O)N(C)CC(=O)N(C)[C@H]2C/C=C\CCN(C2=O)[C@@H](Cc2ccc(C(F)(F)F)cc2)C(=O)N(C)CC(=O)N[C@@H](CCc2ccc(C(F)(F)F)c(OC)c2)C(=O)N2C[C@@H](C)C[C@H]2C(=O)NC2(CC(C)(C)C2)C(=O)N(C)[C@@H](C2CCCC2)C(=O)N(C)[C@H](C(=O)N(C)CC)CC(=O)N1C [PP1993] | 0.12 | A (a compound having 10 or more and less than 20 is denoted as A) | A (a compound having 10 or more and less than 20 is denoted as A) | 13.3
14 | CCCN(C)C(=O)[C@@H]1CC(=O)N(C)[C@@H](C2CC2)C(=O)N[C@@H]([C@@H](C)CC)C(=O)N(C)CC(=O)N(C)[C@H]2C/C=C\CCN(C2=O)[C@@H](Cc2ccc(C(F)(F)F)cc2)C(=O)N(C)CC(=O)N[C@@H](CCc2cc(F)c(C(F)(F)F)c(F)c2)C(=O)N2C[C@H](OCC)C[C@H]2C(=O)NC2(CCC2)C(=O)N(C)[C@@H](C2CCCC2)C(=O)N1C [PP1994] | 0.1 | AA (a compound having 20 or more is denoted as AA) | A (a compound having 10 or more and less than 20 is denoted as A) | 22.4
15 | CCCOC[C@H]1C(=O)N[C@@H]([C@@H](C)CC)C(=O)N(C)CC(=O)N(C)[C@H]2C/C=C\CCN(C2=O)[C@@H](Cc2ccc(C(F)(F)F)cc2)C(=O)N(C)CC(=O)N[C@@H](CCc2ccc(C(F)(F)F)c(OC)c2)C(=O)N2C[C@@H](C)C[C@H]2C(=O)NC2(CC(C)(C)C2)C(=O)N(C)[C@@H](C2CCCC2)C(=O)N(C)[C@H](C(=O)N(C)CC)CC(=O)N1C [PP1995] | 0.21 | A (a compound having 10 or more and less than 20 is denoted as A) | B (a compound having 3 or more and less than 10 is denoted as B) | 17.8
